Experimental data taken from patent publication US12391706B2, “Multi-target tyrosine kinase inhibitor” (SHENZHEN NEPTUNUS PHARMACEUTICAL RESEARCH INSTITUTE CO., …, priority 2020, dated 2025).

What was measured:
[1] = Solubility test (water), Chinese Pharmacopoeia 2015; type: physicochemical; conditions: 25° C.±2° C., dissolution within 30 minutes
Protocol: The series of compounds synthesized in Examples 1-24 were subjected to solubility test (water), according to the solubility test methods in Chinese Pharmacopoeia, 2015 Edition. The specific test operations and evaluation criteria are as follows: An appropriate amount (1 mg-10 mg) of finely powdered compound was weighed, placed in a certain volume of solvent at 25° C.±2° C., and shaken vigorously for 30 seconds every 5 minutes; the dissolution within 30 minutes was observed. It was considered completely dissolved if there were no visible particles or droplets of the solute. [table]

MV-4-11 = MV-4-11 nude mouse xenograft model; type: in vivo; conditions: MV-4-11 xenograft, 50 mg/kg * 21 d, i.g, QD
Protocol: (§1) Test method: 5×10^6 MKN-45 gastric cancer cells were inoculated under the fat pad of the right rib of nude mice, and the tumor formation was observed. Two weeks after the inoculation, the tumor-bearing mice were divided into groups and orally administered with td32-4, td32-4P3, td32-4P6, td32-4P9, and td32-4P10 at a dose of 100 mg·kg^−1, once a day for 14 days, respectively. Tumor volumes were measured with a caliper and recorded.
(§2) The compound td32-4P10 was selected for in vivo activity evaluation. The tumor inhibitory activity data of td32-4P10 were tested in MV-4-11, H358 and H82 nude mouse xenograft model, respectively. Meanwhile, the changes in tumor volume during the treatment, and the changes in body weight of the nude mice induced by the drug during the treatment were measured. After the treatment, the tumor weights were counted. The tumor anatomical images after the treatment were recorded.

[2] = tested on: MKN-45 gastric cancer cells; test: Gastric cancer cell MKN45 xenograft model; type: in vivo, nude mice; conditions: oral 100 mg·kg^−1 once a day for 14 days
Description: • 1. Compounds (td32-4, td32-4P3, td32-4P6, td32-4P9, td32-4P10) were selected for in vivo activity evaluation at a single concentration. The animal model was gastric cancer cell MKN45 xenograft model.
as §1

[3] = In vivo transformation / pharmacokinetic study in SD rats; conditions: for time to almost complete conversion into td32-4 in vivo: oral 200 mg·kg^−1
Description: The compounds of the present invention have improved solubility by introducing a hydrophilic functional group into the structure of td32-4 through an ester bond. After oral administration, the compounds need to be converted into td32-4 in the physical and chemical environment in vivo to exert pharmacological effects. In this example, some representative compounds were selected for in vivo pharmacokinetic studies in SD rats, and compared with direct oral administration of td32-4. The experiment was performed at high (200 mg·kg^−1) and low (10 mg·kg^−1) doses. 5 mg of the test sample was placed into a glass bottle. 1 mL of DMA (dimethylacetamide) was added and vortexed to dissolve the solid completely. 1.5 mL of PEG400 was added, vortexed and mixed well. 2.5 mL of physiological saline for injection was added, vortexed, mixed well. The mixture was filtered with a filter membrane (PALL, Nylon, 0.45 μm) to obtain a colorless and clear solution. The test sample was administered to experimental animals (n=3) by tail vein injection at a dose of 5 mg·kg^−1 (1 mg·mL^−1). An appropriate amount of the test sample was placed into a glass bottle. PEG400 was added, vortexed and mixed well. The mixture was sonicated to obtain a clear solution. The test sample was administered to experimental animals (n=3) by gavage at a dose of 10 mg·kg^−1 and 200 mg·kg^−1, respectively. SD rats were weighed before administration, and the dose was calculated according to the body weight. They were administered by intravenous injection or by gavage. Blood was collected through the submandibular vein or other suitable ways, at intervals of 0, 0.083, 0.25, 0.5, 1, 2, 4, 8, 12, 24 hours. About 0.20 mL of each sample was collected, anticoagulated with EDTA-K2, and placed on ice after collection, and centrifuged within 1 hour to separate plasma (centrifugation conditions: 6800 g, 6 minutes, 2-8° C.). Plasma samples were stored in a −80° C. freezer prior to analysis. The blood drug concentration of each sample was analyzed using LC-MS/MS. […]

H82 = H82 nude mouse xenograft model; type: in vivo; conditions: 50 mg/kg * 14 d, i.g, QD
Protocol: as §1, §2

H358 = H358 nude mouse xenograft model; type: in vivo; conditions: 50 mg/kg * 21 d, i.g, QD
Protocol: as §1, §2

VEGFR = conditions: cited from earlier work
[4] = tested on: multiple tumor cell models; conditions: cited from earlier work
c-Met = c-Met (Homo sapiens, UniProt P08581); conditions: cited from earlier work
Sequence of c-Met (P08581 25-1390): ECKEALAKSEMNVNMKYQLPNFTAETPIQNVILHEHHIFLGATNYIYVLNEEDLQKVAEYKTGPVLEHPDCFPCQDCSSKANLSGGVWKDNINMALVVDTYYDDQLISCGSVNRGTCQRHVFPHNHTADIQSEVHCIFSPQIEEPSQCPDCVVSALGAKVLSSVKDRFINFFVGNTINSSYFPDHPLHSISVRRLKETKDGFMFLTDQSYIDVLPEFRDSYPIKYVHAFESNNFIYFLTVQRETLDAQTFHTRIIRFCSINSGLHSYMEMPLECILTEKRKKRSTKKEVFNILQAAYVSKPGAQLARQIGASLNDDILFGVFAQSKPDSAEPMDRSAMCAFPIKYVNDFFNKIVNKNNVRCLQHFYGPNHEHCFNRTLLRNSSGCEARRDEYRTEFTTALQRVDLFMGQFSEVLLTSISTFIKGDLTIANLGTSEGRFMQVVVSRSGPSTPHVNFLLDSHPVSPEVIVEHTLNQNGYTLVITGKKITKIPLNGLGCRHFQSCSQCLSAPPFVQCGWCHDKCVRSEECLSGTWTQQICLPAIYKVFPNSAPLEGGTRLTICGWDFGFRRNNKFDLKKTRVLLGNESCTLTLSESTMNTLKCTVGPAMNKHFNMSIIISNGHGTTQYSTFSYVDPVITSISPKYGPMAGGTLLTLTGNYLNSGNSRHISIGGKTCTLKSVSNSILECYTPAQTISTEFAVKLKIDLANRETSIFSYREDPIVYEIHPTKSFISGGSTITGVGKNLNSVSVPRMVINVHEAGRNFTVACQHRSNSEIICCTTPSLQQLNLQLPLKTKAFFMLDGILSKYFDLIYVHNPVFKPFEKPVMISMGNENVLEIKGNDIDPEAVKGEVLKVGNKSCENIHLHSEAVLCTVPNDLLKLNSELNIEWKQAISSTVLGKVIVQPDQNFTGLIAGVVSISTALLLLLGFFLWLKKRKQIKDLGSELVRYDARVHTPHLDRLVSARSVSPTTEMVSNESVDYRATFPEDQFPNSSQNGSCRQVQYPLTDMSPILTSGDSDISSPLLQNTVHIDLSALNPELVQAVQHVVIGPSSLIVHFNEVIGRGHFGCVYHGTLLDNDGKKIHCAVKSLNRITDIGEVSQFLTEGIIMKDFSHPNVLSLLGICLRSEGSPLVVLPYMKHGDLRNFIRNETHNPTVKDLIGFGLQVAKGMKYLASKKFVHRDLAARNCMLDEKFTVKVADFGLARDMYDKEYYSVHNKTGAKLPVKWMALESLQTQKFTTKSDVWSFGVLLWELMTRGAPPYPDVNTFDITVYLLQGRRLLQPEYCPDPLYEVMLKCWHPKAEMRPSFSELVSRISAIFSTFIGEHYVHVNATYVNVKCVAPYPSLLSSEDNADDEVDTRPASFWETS

c-Kit = c-Kit (Homo sapiens, UniProt P10721); conditions: cited from earlier work
Sequence of c-Kit (P10721 26-976): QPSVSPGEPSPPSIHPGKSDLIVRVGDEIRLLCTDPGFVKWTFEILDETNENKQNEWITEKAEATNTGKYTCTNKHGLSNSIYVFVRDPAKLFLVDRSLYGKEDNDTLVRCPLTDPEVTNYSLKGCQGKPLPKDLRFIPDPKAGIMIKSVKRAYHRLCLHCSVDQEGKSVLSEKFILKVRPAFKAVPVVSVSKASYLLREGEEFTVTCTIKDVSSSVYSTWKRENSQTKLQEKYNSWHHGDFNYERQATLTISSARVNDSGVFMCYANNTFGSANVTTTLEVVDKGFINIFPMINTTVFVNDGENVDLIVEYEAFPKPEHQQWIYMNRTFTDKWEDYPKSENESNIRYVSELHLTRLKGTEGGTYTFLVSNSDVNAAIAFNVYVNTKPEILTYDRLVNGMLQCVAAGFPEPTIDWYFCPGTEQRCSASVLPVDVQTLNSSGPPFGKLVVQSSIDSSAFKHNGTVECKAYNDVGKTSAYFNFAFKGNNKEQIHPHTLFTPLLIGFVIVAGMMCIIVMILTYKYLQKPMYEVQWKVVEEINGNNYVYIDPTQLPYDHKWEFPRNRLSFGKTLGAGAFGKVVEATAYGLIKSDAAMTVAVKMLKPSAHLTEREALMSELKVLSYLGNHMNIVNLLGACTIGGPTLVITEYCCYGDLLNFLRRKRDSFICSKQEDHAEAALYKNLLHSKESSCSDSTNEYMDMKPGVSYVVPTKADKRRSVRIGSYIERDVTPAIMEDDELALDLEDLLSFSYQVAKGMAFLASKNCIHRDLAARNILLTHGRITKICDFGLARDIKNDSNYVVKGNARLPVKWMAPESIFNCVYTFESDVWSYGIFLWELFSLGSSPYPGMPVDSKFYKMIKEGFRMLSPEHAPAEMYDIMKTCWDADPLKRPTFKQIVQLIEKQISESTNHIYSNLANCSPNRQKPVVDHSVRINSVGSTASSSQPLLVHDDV

[5] = low dose (10 mg·kg^−1), solution; cited from earlier work
[6] = cited from earlier work

Row | time to almost complete conversion into td32-4 in vivo [3] [h] | conversion into td32-4 in vivo ([3]; oral 10 mg·kg^−1) | Compound | Water solubility test Result [1] | T/C (%) (MV-4-11) | TGI (%) (MV-4-11) | tumor inhibitory effect (tumor volume) [2] | T/C (%) (H82) | TGI (%) (H82) | T/C (%) (H358) | TGI (%) (H358) | inhibitory activity (VEGFR) | anti-proliferative activity [4] | inhibitory activity (c-Met) | inhibitory activity (c-Kit) | oral bioavailability F [5] [%] | water solubility [6]
1 | ≤ 18 |  | CC(C)C(N)C(=O)OCCn1cc(-c2cc3nccc(Oc4ccc(NC(=O)C5(C(=O)Nc6ccc(F)cc6)CC5)cc4F)c3s2)cn1 (stereo not drawn) [td32-4P10, 2-(4-(7-(2-fluoro-4-(1-((4-fluorophenyl)carbamoyl)cyclopropane-1-carboxamide)phenoxy)thieno[3,2-b]pyridin-2-yl)-1H-pyrazolyl-1-yl)ethyl valinate] | C (1 g of solute is soluble in 10~30 mL of sovent) | 3.4 | 109 | potent tumor inhibitory effect | 11 | 92 | 6.6 | 112 |  |  |  |  |  | 
2 | ≤ 18 | rapidly converted | CN(C)CC(=O)OCCn1cc(-c2cc3nccc(Oc4ccc(NC(=O)C5(C(=O)Nc6ccc(F)cc6)CC5)cc4F)c3s2)cn1 [td32-4P3, 2-(4-(7-(2-fluoro-4-(1-((4-fluorophenyl)carbamoyl)cyclopropane-1-carboxamide)phenoxy)thieno[3,2-b]pyridin-2-yl)-1H-pyrazolyl-1-yl)ethyldimethyl glycinate] | C (1 g of solute is soluble in 10~30 mL of sovent) |  |  | potent tumor inhibitory effect |  |  |  |  |  |  |  |  |  | 
3 |  |  | O=C(Nc1ccc(F)cc1)C1(C(=O)Nc2ccc(Oc3ccnc4cc(-c5cnn(CCO)c5)sc34)c(F)c2)CC1 [td32-4] | G (1 g of solute is insoluble in 10000 mL of solvent) |  |  | did not show significant activity |  |  |  |  | potent inhibitory activity | potent anti-proliferative activity | potent inhibitory activity | potent inhibitory activity | 71.6 | extremely poor water solubility
